Data: patent publication US20200054271A1, “COMPUTER-BASED LIVER MODEL” (priority 2017, published 2020)
Each block holds one molecule with its values, some of them ahead of it.

Key:
[1] = tested on: bile canaliculi (BC) network; assay: BC network geometry (BC radius) from 3D reconstruction of CD13-stained fixed liver tissue sections; format: in vivo, mouse
Description: (§1) As controls, mice were administered 0.9% saline.
All steps were performed at room temperature.
Fixed tissue was imaged with a Zeiss laser scanning microscope 780 NLO using a 63×1.3 numerical aperture (NA) glycerol immersion objective (Zeiss), a Chameleon Ti-Sapphire 2-photon laser (780 nm), 488 and 561 laser lines and Gallium arsenide phosphide (GaAsp) detectors.
3D reconstructions of the BC network were performed on high-resolution IF image stacks of fixed liver tissue stained for the apical marker CD13 (voxel size: 0.28×0.28×0.3 μm, 70-80 μm in depth). A tile of 2×1 image stacks was stitched to cover an entire CV-PV axis. Images were processed, analyzed and reconstructed using the software MotionTracking as described in (Morales-Navarrete et al., 2015). In brief, images were segmented using a local thresholding algorithm (maximum entropy), segmented objects were corrected for artefacts using standard morphological operations (opening/closing) and the triangulation mesh of the segmented surfaces was generated by the cube marching algorithm. The active mesh was tuned to align the triangle mesh vertexes to the maximum gradient of fluorescence intensity in the original image. A representation of the skeletonized image was generated using a 3D graph describing the geometrical and topological features of the BC network. For the spatial analysis of BC radius, porosity and network density, the CV-PV axis was computationally divided into 20 equidistant zones based on the distance dof each position x from the CV (dCV) and PV (dPV):
Then, the average radius and porosity was determined per zone. For the radius, the minimal distance of each node of the central line of the BC network was quantified in the xy-plane. For the BC network density, the network length per tissue volume was calculated. For the tissue porosity, […]

[2] = from the literature; cited from earlier work
[3] = tested on: bile flow in the BC network; assay: Bile velocity and apical CF transport by intravital microscopy (IVM) of CF(DA) transport with 3-compartment model; format: in vivo, mouse
Description: as §1
The objective was heated to 37° C.
Quantification of the CF intensity in the hepatocyte cytoplasm and BC from IVM movies was performed using the image analysis software MotionTracking. Following correction for shift, IVM movies contained 16-21 frames per stack, covering 15-20 μm in z. To avoid liver damage from photo-toxicity, IVM movies were acquired with minimum laser intensities resulting in low signal-to-noise ratio. […] Therefore, we used the modified Mean-Shift algorithm to separate the CF fluorescence from the background. The result of the background/foreground discrimination was checked manually. The BC were detected in three steps. First, the image was convolved with Laplacian of Gaussian. Second, pixels with an intensity >2 standard deviations of the local noise were defined as potential BC. The local noise was determined from the local intensity minimums in at least one of 4 discrete directions. Third, along the line of the local maximum intensity direction of a BC, pixels that co-localized with sharp intensity transitions between the cytoplasm and sinusoids were excluded from the BC compartment. For all compartments (cytoplasm, BC and background), the mean intensity was calculated. To avoid mixing of compartments from light scattering of bright objects (BC to cytoplasm and cytoplasm to background), the area within the radius of 2 pixels from the object border was excluded from the calculation.
The transport of CF(DA) from the blood into and through the biliary network was described in a mathematical model that considers 3 hepatic compartments: the blood (s), hepatocytes cytoplasm (c) and bile canaliculi (b) (see FIG. 2F). Dye propagation through these three compartments was modelled for three spatially distinct zones within the liver lobule: The CV, MD and PV zone as defined in FIG. 2C. The different zone geometries of the kite-shaped CV-PV axis were accounted for by introducing respective geometry factors. The model considers that only a fraction of the injected CFDA is delivered to the liver, whereas the rest is cleared by other tissues at rate κclear. The injection of CFDA into the blood circulation is described by Pulse(t). It is defined by the time point of injection start (τ1) and the injection duration (τ2) assuming that CFDA is injected with constant rate in time t>τ1 and <τ1+τ2. Both τ1 and τ2 were fitted by the model with boundary intervals 40-80 sec (τ1) and 20-60 sec (τ2). In the liver, the model considers that CFDA is taken up from the blood with a permeability coefficient Perm=3 sec^−1 (according to (Breeuwer et al., 1995), considering a mammalian plasma membrane thickness of 4 nm), converted into CF by cytoplasmic esterases with cleavage rate κcleav and secreted by apical transporters with transporter activity κpump. To account for the spatial heterogeneity of esterase and transporter levels within the CV-PV axis, the amounts of both esterases (qi) and apical transporters (q1i) were determined for each zone (i=cv, md, pv). The model further considers passive back flux of CF from the BC into the hepatocyte cytoplasm at rate κli. The bile canaliculi compartment of the three zones is connected, occurs unidirectional and sequential from the CV to the MD with transport rate
Bile flow velocity vi at the interfaces of the lobule zones was estimated from the volume flux rates
considering the size of the zone volumes V and zone boundaries Ai (i=cv, md, pv) as well as a CV-PV axis distance L of 229 μm: […]

[4] = mouse, in vivo, iv
Description: Mouse anaesthesia was induced with 3-4% isoflurane/0.3% oxygen and maintained by i.p. injection of ketamine/xylazine throughout the experiment. Mice received 20 U of heparin dissolved in 0.9% (w/v) NaCl by i.p. injection to prevent ischemia of the liver during the course of imaging. To visualize hepatocyte nuclei, Hoechst 33258 dissolved in 0.9% (w/v) NaCl was administered retro-orbitally at a dose of 2 mg/kg and in a total volume of 50 μl. To expose the liver for imaging, the abdominal fur was removed using an electric shaver and a small transversal incision of 1 cm was made at the height of the sternum to expose the left lateral liver lobe using a surgical scissor and cauterizer. The mouse was positioned on the stage of an IX81 inverted confocal microscope equipped with a Fluoview 1000 scanning head (Olympus America) and a heat-adjustable UPLSAPO30X, 30×1.05 NA silicon oil objective (Olympus). The objective was heated to 37° C. To avoid compression of the liver lobe and to stabilize the tissue, the stage was designed with a small hole in the center into which the left lateral lobe was carefully placed. The residual volume of the hole was filled with a water based and transparent 1% carbomer gel (0.3 M Sorbitol, 1% (w/v) Carbomer 940, polymerized by addition of triethanolamine and adjusted to pH 7) to immobilize the organ and prevent the organ from drying out. The bottom of the hole was designed with a coverslide through which the organ was accessible for imaging. The animal body temperature was kept at 37° C. using a red lamp. Prior to imaging start, 18 mg/kg of 70 kDa Rhodaminedextran or 20 μl of Qtracker 655 vascular label dissolved in 0.9% (w/v) NaCl was injected retro-orbitally to identify the lobule orientation from the vascular flow pattern. To monitor the flux of CFDA in the liver, CFDA, dissolved in dimethyl sulfoxide (DMSO), was injected retro-orbitally at a dose of 0.2 mg/kg in a total volume of 50 μl. CFDA injection was performed slowly (approx. 30 sec) to avoid hydrodynamic effects and performed at 1 min after image acquisition start. […]

[5] = according to Breeuwer et al., 1995, considering a plasma membrane thickness of 4 nm; cited from earlier work
[6] = tested on: phosphorylated myosin light chain (pMLC); assay: Western blot of phosphorylated myosin light chain in liver tissue of treated mice; format: in vivo; conditions: 20 mg/kg Fasudil for 1.5 h, mouse liver
Description: As controls, mice were administered 0.9% saline. […] Cell debris were removed by centrifugation for 10 min at 12 000×g at 4° C. and protein was denatured at 95° C. in presence of 100 mM dithiothreitol (DTT). A total of 10 μg protein was separated by sodium dodecyl sulfate polyacrylamide gel electrophoresis, and transferred onto a nitrocellulose membrane. Membranes were blocked and incubated with primary antibodies against glyceraldehyde 3-phosphate dehydrogenase (GAPDH, 1:2000) or phospho-myosin light chain (pMLC, 1:500) and HRP-conjugated secondary antibodies (1:10000) in 5% dry-milk, 10 mM Tris-HCl pH 8.0, 200 mM NaCl, 0.1% Tween20. Protein was detected using the enhanced chemiluminescence (ECL) detection kit (GE Healthcare, Buckinghamshire, UK) and chemiluminescence films (GE Healthcare, Buckinghamshire, UK) according to manufacturer's instructions. Plasma membrane contractility is determined by the cortical acto-myosin system ([…] et al., 2016; Tsukada and Phillips, 1993). […] Consequently, inhibition of acto-myosin contractility should affect biliary fluid dynamics. […] We next analyzed the BC network geometry on fixed liver tissue sections and found a dilation of BC in Fasudil-treated mice (FIG. 5B).

[7] = APAP 150 mg/kg i.p., 2 h, IVM of CF(DA) transport

Structure (SMILES): CC(=O)Nc1ccc(O)cc1 [APAP, acetaminophen]
dilation of BC, CV zone ([1]; APAP 150 mg/kg i.p., 2 h, immersion fixed, CV zone, pvalue<0.01): up to 20%
dilation of BC, MD zone ([1]; APAP 150 mg/kg i.p., 2 h, immersion fixed, MD zone, pvalue<0.0001): ≤ 18%
maximum reported sub-toxic dose [2]: 150 mg/kg
bile velocity in the peri-portal zone [3, 7]: remained almost unaffected
measured increase in bile velocity in the CV and MD zones [3, 7]: 1.4-1.6 fold
effects on osmolite secretion ([3]; APAP treatment): marginal

time until cleared from the system [4]: ~40 min
time until visible in the BC network [4]: 3 to 5 min
Structure (SMILES): O=C(O)c1ccc2c(c1)C1(OC2=O)c2ccc(O)cc2Oc2cc(O)ccc21 [CF, 6-carboxyfluorescein]

time until detectable in the hepatocyte cytoplasm [4]: within seconds
Structure (SMILES): CC(=O)Oc1ccc2c(c1)Oc1cc(OC(C)=O)ccc1C21OC(=O)c2ccc(C(=O)O)cc21 [CFDA, 6-carboxyfluorecein-diacetate]
permeability coefficient Perm for uptake from the blood [5]: 3 s⁻¹

Structure (SMILES): O=S(=O)(c1cccc2cnccc12)N1CCCNCC1 [Fasudil]
BC radius increase as compared to control mice, MD zone ([1]; Fasudil 20 mg/kg i.p., 1.5 h, MD zone, pvalue<0.0001): up to 12%
BC radius increase as compared to control mice, PV zone ([1]; Fasudil 20 mg/kg i.p., 1.5 h, PV zone, pvalue<0.001): ≤ 7%
extrapolated BC radius at x=L, at(L) ([1]; Fasudil-treated mice, apparent radius at portal outlet): 1.422 μm
reduction of bile velocity across the CV-PV axis as compared to control mice ([3]; Fasudil 20 mg/kg i.p., 1.5 h, IVM of CF(DA) transport): 50-58%
apical CF transport ([3]; Fasudil-treated mice, IVM): reduction
apical secretion fluxes summed over the entire CV-PV axis, Jt ([3]; Fasudil-treated, t=500 sec): 0.0390 arbitrary intensity units per time
apical secretion flux of CF, CV zone ([3]; Fasudil-treated, t=500 sec, CV zone): 0.0019 arbitrary intensity units per time
apical secretion flux of CF, MD zone ([3]; Fasudil-treated, t=500 sec, MD zone): 0.0312 arbitrary intensity units per time
apical secretion flux of CF, PV zone ([3]; Fasudil-treated, t=500 sec, PV zone): 0.0059 arbitrary intensity units per time
phosphorylated myosin light chain (pMLC) protein levels [6]: reduction
